According to patent publication US20180296630A1, “METHODS AND COMPOSITIONS FOR PREVENTING OR TREATING OPHTHALMIC CONDITIONS” (Stealth BioTherapeutics Corp, priority 2012, published 2018):
Non-standard residues stand in square brackets, D forms with d. No end group written: not given here.

How the values were obtained:
[1] = system: several mammalian cell types; conditions: energy-independent manner; cited from earlier work
HFD/STZ diabetic rats = assay: Lens opacity (cataract) in HFD/STZ rat model; format: in vivo, Sprague-Dawley rat; conditions: for Percentage of opacity / Percentage of severe opacity / Turbidity degree + (mildly opaque), number in group / Turbidity degree ++ (opaque), number in group / Turbidity degree +++ (moderately opaque), number in group / Turbidity degree ++++ (severely opaque), number in group / Turbidity degree − (transparent), number in group: HFD/STZ rat model
Description: (§1) A rat model of diabetes was established by combination of 6-week HFD and low dose of STZ (30 mg/kg) injection or a single high dose of STZ (65 mg/kg) in SD rats. See generally, K. Srinivasan, B. Viswanad, Lydia Asrat, C. L. Kaul and P. Ramarao, Combination of high-fat diet-fed and low-dose streptozotocin-treated rat: A model for type 2 diabetes and pharmacological screening, Pharmacological Research, 52(4): 313-320, 2005. Rats of the same batch fed with normal chow (NRC) were used as a control.

STZ diabetic rats = assay: Lens opacity (cataract) in STZ rat model; format: in vivo, Sprague-Dawley rat; conditions: 10 mg (Table 11: 10 mg/kg s.c.)
Description: as §1

[2] = system: STZ and HFD/STZ diabetic rats; assay: Inner blood-retinal barrier function (Evans blue extravasation) in diabetic SD rats; format: in vivo, Sprague-Dawley rat; conditions: compared to rats on a HFD not administered peptide
Description: FIGS. 10A and 10B are charts showing the integrity of the blood-retinal barrier of normal rats (NRC), diabetic rats, and diabetic rats treated with Phe-D-Arg-Phe-Lys-NH2 (SS-20) or D-Arg-2′,6′-Dmt-Lys-Phe-NH2(SS-31), as analyzed by Evans blue extravasation. (A) diabetes induced by STZ; (B) diabetes induced by HFD/STZ.
as §1
The effect of the aromatic-cationic peptides on the inner blood-retinal barrier function in the SD rat model was investigated.

2′,6′-Dmt-D-Arg-Phe-Lys-NH2
penetration of the plasma membrane [1]: readily penetrates

F[dR]FK-NH2
cataract formation in the lenses of diabetic rats (HFD/STZ diabetic rats; HFD/STZ and STZ models (FIGS. 6 and 7, Tables 13 and 14)): prevention or reversal of cataract formation | Percentage of opacity (HFD/STZ diabetic rats; 3 mg (Table 9: 3 mg/kg s.c.)): 75.0% | Percentage of severe opacity (HFD/STZ diabetic rats; 3 mg (Table 9: 3 mg/kg s.c.)): 25.0% | Turbidity degree + (mildly opaque), number in group (HFD/STZ diabetic rats; 3 mg (Table 9: 3 mg/kg s.c.)): 1 | Turbidity degree ++ (opaque), number in group (HFD/STZ diabetic rats; 3 mg (Table 9: 3 mg/kg s.c.)): 1 | Turbidity degree +++ (moderately opaque), number in group (HFD/STZ diabetic rats; 3 mg (Table 9: 3 mg/kg s.c.)): 0 | Turbidity degree ++++ (severely opaque), number in group (HFD/STZ diabetic rats; 3 mg (Table 9: 3 mg/kg s.c.)): 1 | Turbidity degree − (transparent), number in group (HFD/STZ diabetic rats; 3 mg (Table 9: 3 mg/kg s.c.)): 1 | Percentage of opacity (HFD/STZ diabetic rats; 10 mg (Table 9: 10 mg/kg s.c.)): 75.0% | Percentage of severe opacity (HFD/STZ diabetic rats; 10 mg (Table 9: 10 mg/kg s.c.)): 0% | Turbidity degree + (mildly opaque), number in group (HFD/STZ diabetic rats; 10 mg (Table 9: 10 mg/kg s.c.)): 2 | Turbidity degree ++ (opaque), number in group (HFD/STZ diabetic rats; 10 mg (Table 9: 10 mg/kg s.c.)): 1 | Turbidity degree +++ (moderately opaque), number in group (HFD/STZ diabetic rats; 10 mg (Table 9: 10 mg/kg s.c.)): 0 | Turbidity degree ++++ (severely opaque), number in group (HFD/STZ diabetic rats; 10 mg (Table 9: 10 mg/kg s.c.)): 0 | Turbidity degree − (transparent), number in group (HFD/STZ diabetic rats; 10 mg (Table 9: 10 mg/kg s.c.)): 1 | Opacity degree ++++, number in group (STZ diabetic rats): 1 | Opacity degree +++, number in group (STZ diabetic rats): 0 | Opacity degree ++, number in group (STZ diabetic rats): 2 | Opacity degree +, number in group (STZ diabetic rats): 0 | Opacity degree −, number in group (STZ diabetic rats): 2 | Percentage of opacity (STZ diabetic rats): 60.0% | Percentage of severe opacity (STZ diabetic rats): 20.0% | inner blood-retinal barrier function [2]: improved
